Results taken from PubChem BioAssay AID2060900 (Molecular Pharmacology Branch, DTP, NCI, 2025).
Blank lines part the entries; values can stand above or below the compound they belong to.

System: 521955-158-R2-J5-PDC complex spheroids, viability
Assay: Anticancer human tumor 521955-158-R2-J5-PDC patient-derived pancreatic carcinoma cell line growth inhibition [RAS]
Conditions: for IC50: curve of first compound; for viability, T/C: stronger effect = lower value
Summary of the method: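 Tumour cells grown as complex spheroids with HUVEC endothelial cells and mesenchymal stem cells, treated with RAS pathway inhibitor combinations. Each agent spans half-log steps from near clinical Cmax, or 10 microM where Cmax is unknown.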

[1] = second compound 0.000949 µM, first compound 0.00316 µM
[2] = second compound 0.000949 µM, first compound 0.01 µM
[3] = second compound 0.000949 µM, first compound 0.0316 µM
[4] = second compound 0.000949 µM, first compound 0.1 µM
[5] = second compound 0.000949 µM, first compound 0.316 µM
[6] = second compound 0.000949 µM, first compound 1 µM
[7] = second compound 0.003 µM, first compound 0.00316 µM
[8] = second compound 0.003 µM, first compound 0.01 µM
[9] = second compound 0.003 µM, first compound 0.0316 µM
[10] = second compound 0.003 µM, first compound 0.1 µM
[11] = second compound 0.003 µM, first compound 0.316 µM
[12] = second compound 0.003 µM, first compound 1 µM
[13] = second compound 0.00949 µM, first compound 0.00316 µM
[14] = second compound 0.00949 µM, first compound 0.01 µM
[15] = second compound 0.00949 µM, first compound 0.0316 µM
[16] = second compound 0.00949 µM, first compound 0.1 µM
[17] = second compound 0.00949 µM, first compound 0.316 µM
[18] = second compound 0.00949 µM, first compound 1 µM
[19] = second compound 0.03 µM, first compound 0.00316 µM
[20] = second compound 0.03 µM, first compound 0.01 µM
[21] = second compound 0.03 µM, first compound 0.0316 µM
[22] = second compound 0.03 µM, first compound 0.1 µM
[23] = second compound 0.03 µM, first compound 0.316 µM
[24] = second compound 0.03 µM, first compound 1 µM
[25] = second compound 0.0949 µM, first compound 0.00316 µM
[26] = second compound 0.0949 µM, first compound 0.01 µM
[27] = second compound 0.0949 µM, first compound 0.0316 µM
[28] = second compound 0.0949 µM, first compound 0.1 µM
[29] = second compound 0.0949 µM, first compound 0.316 µM
[30] = second compound 0.0949 µM, first compound 1 µM
[31] = second compound 0.3 µM, first compound 0.00316 µM
[32] = second compound 0.3 µM, first compound 0.01 µM
[33] = second compound 0.3 µM, first compound 0.0316 µM
[34] = second compound 0.3 µM, first compound 0.1 µM
[35] = second compound 0.3 µM, first compound 0.316 µM
[36] = second compound 0.3 µM, first compound 1 µM
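Further: compound exposure lasted seven days before the viability read.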
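Wherever viability, T/C is given: spheroids also contain HUVEC endothelial cells and mesenchymal stem cells as stroma.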

- IC50 (second compound 0.000949 µM): < 3.16 nM
- IC50 (second compound 0.003 µM): < 3.16 nM
- IC50 (second compound 0.00949 µM): < 3.16 nM
- IC50 (second compound 0.03 µM): < 3.16 nM
- IC50 (second compound 0.0949 µM): < 3.16 nM
- IC50 (second compound 0.3 µM): < 3.16 nM
Compound: C=CC(=O)N1CCN(c2nc(OCC3CCCN3C)nc3c(F)c(-c4nc(N)cc(C)c4C(F)(F)F)c(Cl)cc23)C(C)C1 (stereo not drawn) + CCn1c(-c2cc(N3CCN(C)CC3)cnc2C(C)OC)c2c3cc(ccc31)-c1csc(n1)CC(NC(=O)C1CC1C)C(=O)N1CCCC(N1)C(=O)OCC(C)(C)C2
- viability, T/C [1]: 42.5%
- viability, T/C [2]: 43.1%
- viability, T/C [3]: 45.9%
- viability, T/C [4]: 45.9%
- viability, T/C [5]: 57.7%
- viability, T/C [6]: 41%
- viability, T/C [7]: 39.4%
- viability, T/C [8]: 36.5%
- viability, T/C [9]: 46.7%
- viability, T/C [10]: 49.3%
- viability, T/C [11]: 39.9%
- viability, T/C [12]: 49.5%
- viability, T/C [13]: 35%
- viability, T/C [14]: 35.4%
- viability, T/C [15]: 44.3%
- viability, T/C [16]: 29.6%
- viability, T/C [17]: 42%
- viability, T/C [18]: 36.1%
- viability, T/C [19]: 17.1%
- viability, T/C [20]: 19%
- viability, T/C [21]: 22.6%
- viability, T/C [22]: 20.2%
- viability, T/C [23]: 30.7%
- viability, T/C [24]: 18.6%
- viability, T/C [25]: 16.1%
- viability, T/C [26]: 11.4%
- viability, T/C [27]: 11.9%
- viability, T/C [28]: 13.9%
- viability, T/C [29]: 15.1%
- viability, T/C [30]: 11.9%
- viability, T/C [31]: 10.8%
- viability, T/C [32]: 10.2%
- viability, T/C [33]: 11.3%
- viability, T/C [34]: 12.5%
- viability, T/C [35]: 15.9%
- viability, T/C [36]: 9.71%

- IC50 (second compound 0.000949 µM): < 0.949 nM
- IC50 (second compound 0.003 µM): < 0.949 nM
- IC50 (second compound 0.00949 µM): < 0.949 nM
- IC50 (second compound 0.03 µM): < 0.949 nM
- IC50 (second compound 0.0949 µM): < 0.949 nM
- IC50 (second compound 0.3 µM): < 0.949 nM
Compound: CC1(C)CCC(Nc2ncc(C(F)(F)F)c(-c3c[nH]c4c(P(C)(C)=O)c(C#N)ccc34)n2)CN1 (stereo not drawn) + CCn1c(-c2cc(N3CCN(C)CC3)cnc2C(C)OC)c2c3cc(ccc31)-c1csc(n1)CC(NC(=O)C1CC1C)C(=O)N1CCCC(N1)C(=O)OCC(C)(C)C2
- viability, T/C (second compound 0.000949 µM, first compound 0.000949 µM): 33.7%
- viability, T/C (second compound 0.000949 µM, first compound 0.003 µM): 32%
- viability, T/C (second compound 0.000949 µM, first compound 0.00949 µM): 33.4%
- viability, T/C (second compound 0.000949 µM, first compound 0.03 µM): 30.9%
- viability, T/C (second compound 0.000949 µM, first compound 0.0949 µM): 39.5%
- viability, T/C (second compound 0.000949 µM, first compound 0.3 µM): 40.5%
- viability, T/C (second compound 0.003 µM, first compound 0.000949 µM): 34.6%
- viability, T/C (second compound 0.003 µM, first compound 0.003 µM): 26.5%
- viability, T/C (second compound 0.003 µM, first compound 0.00949 µM): 18%
- viability, T/C (second compound 0.003 µM, first compound 0.03 µM): 23.1%
- viability, T/C (second compound 0.003 µM, first compound 0.0949 µM): 23.4%
- viability, T/C (second compound 0.003 µM, first compound 0.3 µM): 31.7%
- viability, T/C (second compound 0.00949 µM, first compound 0.000949 µM): 24.2%
- viability, T/C (second compound 0.00949 µM, first compound 0.003 µM): 23.6%
- viability, T/C (second compound 0.00949 µM, first compound 0.00949 µM): 20.4%
- viability, T/C (second compound 0.00949 µM, first compound 0.03 µM): 16.6%
- viability, T/C (second compound 0.00949 µM, first compound 0.0949 µM): 15.1%
- viability, T/C (second compound 0.00949 µM, first compound 0.3 µM): 19.4%
- viability, T/C (second compound 0.03 µM, first compound 0.000949 µM): 12.3%
- viability, T/C (second compound 0.03 µM, first compound 0.003 µM): 17.6%
- viability, T/C (second compound 0.03 µM, first compound 0.00949 µM): 9.79%
- viability, T/C (second compound 0.03 µM, first compound 0.03 µM): 7.37%
- viability, T/C (second compound 0.03 µM, first compound 0.0949 µM): 8.43%
- viability, T/C (second compound 0.03 µM, first compound 0.3 µM): 7.63%
- viability, T/C (second compound 0.0949 µM, first compound 0.000949 µM): 8.04%
- viability, T/C (second compound 0.0949 µM, first compound 0.003 µM): 7.4%
- viability, T/C (second compound 0.0949 µM, first compound 0.00949 µM): 8.22%
- viability, T/C (second compound 0.0949 µM, first compound 0.03 µM): 5.8%
- viability, T/C (second compound 0.0949 µM, first compound 0.0949 µM): 4.67%
- viability, T/C (second compound 0.0949 µM, first compound 0.3 µM): 4.29%
- viability, T/C (second compound 0.3 µM, first compound 0.000949 µM): 8.35%
- viability, T/C (second compound 0.3 µM, first compound 0.003 µM): 7.65%
- viability, T/C (second compound 0.3 µM, first compound 0.00949 µM): 4.3%
- viability, T/C (second compound 0.3 µM, first compound 0.03 µM): 4.81%
- viability, T/C (second compound 0.3 µM, first compound 0.0949 µM): 3.91%
- viability, T/C (second compound 0.3 µM, first compound 0.3 µM): 5.79%

- IC50 (second compound 0.000949 µM): 504 nM
- IC50 (second compound 0.003 µM): 755 nM
- IC50 (second compound 0.00949 µM): 493 nM
- IC50 (second compound 0.03 µM): 416 nM
- IC50 (second compound 0.0949 µM): 441 nM
- IC50 (second compound 0.3 µM): 176 nM
Compound: C=CC(=O)Nc1cc(Nc2nccc(-c3cn(C)c4ccccc34)n2)c(OC)cc1N(C)CCN(C)C + CCn1c(-c2cccnc2C(C)OC)c2c3cc(ccc31)N1CCOC(CC(NC(=O)C(C(C)C)N(C)C(=O)C3(F)CCN(C(=O)C#CC(C)(C)N(C)C)CC3)C(=O)N3CCCC(N3)C(=O)OCC(C)(C)C2)C1
- viability, T/C [1]: 89.9%
- viability, T/C [2]: 84.1%
- viability, T/C [3]: 84.1%
- viability, T/C [4]: 72.6%
- viability, T/C [5]: 59%
- viability, T/C [6]: 37.1%
- viability, T/C [7]: 110%
- viability, T/C [8]: 82.6%
- viability, T/C [9]: 71.8%
- viability, T/C [10]: 65.3%
- viability, T/C [11]: 59.2%
- viability, T/C [12]: 44.1%
- viability, T/C [13]: 101%
- viability, T/C [14]: 91.5%
- viability, T/C [15]: 88.6%
- viability, T/C [16]: 75.4%
- viability, T/C [17]: 61.4%
- viability, T/C [18]: 34.1%
- viability, T/C [19]: 88.6%
- viability, T/C [20]: 79.2%
- viability, T/C [21]: 80%
- viability, T/C [22]: 70.8%
- viability, T/C [23]: 51.8%
- viability, T/C [24]: 41%
- viability, T/C [25]: 86.3%
- viability, T/C [26]: 95.8%
- viability, T/C [27]: 70%
- viability, T/C [28]: 70.2%
- viability, T/C [29]: 56.6%
- viability, T/C [30]: 36.9%
- viability, T/C [31]: 70.2%
- viability, T/C [32]: 79.2%
- viability, T/C [33]: 72%
- viability, T/C [34]: 55.4%
- viability, T/C [35]: 45.3%
- viability, T/C [36]: 36.9%

- IC50 (second compound 0.000949 µM): 17.3 nM
- IC50 (second compound 0.003 µM): 27.1 nM
- IC50 (second compound 0.00949 µM): 41.3 nM
- IC50 (second compound 0.03 µM): 31.3 nM
- IC50 (second compound 0.0949 µM): 17.8 nM
- IC50 (second compound 0.3 µM): 6.72 nM
Compound: O=C(c1ccc(F)c(F)c1Nc1ccc(I)cc1F)N1CC(O)([C@@H]2CCCCN2)C1 + CCn1c(-c2cccnc2C(C)OC)c2c3cc(ccc31)N1CCOC(CC(NC(=O)C(C(C)C)N(C)C(=O)C3(F)CCN(C(=O)C#CC(C)(C)N(C)C)CC3)C(=O)N3CCCC(N3)C(=O)OCC(C)(C)C2)C1
- viability, T/C [1]: 83%
- viability, T/C [2]: 53.3%
- viability, T/C [3]: 43.4%
- viability, T/C [4]: 36.1%
- viability, T/C [5]: 32.2%
- viability, T/C [6]: 22%
- viability, T/C [7]: 77.6%
- viability, T/C [8]: 62.5%
- viability, T/C [9]: 45.2%
- viability, T/C [10]: 36.1%
- viability, T/C [11]: 33%
- viability, T/C [12]: 18.6%
- viability, T/C [13]: 92.2%
- viability, T/C [14]: 60.9%
- viability, T/C [15]: 58.5%
- viability, T/C [16]: 42.2%
- viability, T/C [17]: 28.3%
- viability, T/C [18]: 24.2%
- viability, T/C [19]: 80%
- viability, T/C [20]: 59.6%
- viability, T/C [21]: 51.6%
- viability, T/C [22]: 39.2%
- viability, T/C [23]: 29%
- viability, T/C [24]: 22.2%
- viability, T/C [25]: 64.2%
- viability, T/C [26]: 56.8%
- viability, T/C [27]: 43.2%
- viability, T/C [28]: 36.4%
- viability, T/C [29]: 32.4%
- viability, T/C [30]: 23.9%
- viability, T/C [31]: 54.2%
- viability, T/C [32]: 46.5%
- viability, T/C [33]: 42.2%
- viability, T/C [34]: 37%
- viability, T/C [35]: 31.4%
- viability, T/C [36]: 17.8%
